EC50 and CC50 data for 15 molecules are collected here from patent US20230382909A1, “BICYCLIC COMPOUNDS” (Aligos Therapeutics, Inc., priority 2022, published 2023).

Each structure is given as a SMILES string. pEC50: −log10 of the molar value.

For one series, the system named is HBV. The series can be described thus: HBV-DNA antiviral assay using HepG2.117 cells. As to conditions: Hepatitis B virus, HepG2.117, 72 h. It is filed as cell-based, HBV genotype D. As to the method: (§1) The following assay procedure describes the HBV antiviral assay, using HepG2.117 cells, which carry a stably integrated genotype D HBV genome under the control of a Tet-off promoter, and intracellular HBV DNA quantification as endpoint. Cell viability is assessed in parallel by measuring the intracellular ATP content using CellTiter-Glo 2.0 (Promega).
On day 0, HepG2.117 cells (which are maintained in routine cell culture with doxycycline present in the medium at a final concentration of 1 μg/mL) are seeded in 96-well plates (white with clear bottom) at a density of 2.0×10^4 cells/well (0.1 mL/well) in medium without doxycycline to induce pgRNA transcription and subsequent formation of HBV particles. The cells are incubated at 37° C. and 5% CO2.
(§2) On day 1, medium is removed from each well, the test articles are diluted in culture medium without doxcycyline and 100 μL was added to cell culture wells (9 concentrations, 4-fold dilution). For each plate, 6 untreated (merely DMSO) wells are included. The final concentration of DMSO in the culture medium is 2%. Each plate is prepared in duplicate (one for HBV DNA extraction, one for CellTiter-Glo 2.0 measurement). The cells are incubated at 37° C. and 5% CO2 for 3 days.
(§3) On day 4, cell viability is assessed using CellTiter-Glo 2.0 and cell lysates are prepared for HBV DNA extraction and subsequent quantification by qPCR.
HBV DNA Quantification by qPCR
Medium is removed from each well and 100 μL of 0.33% NP-40 in H2O was added to each well. Plates are sealed, incubated at 4° C. for 5 mins, vortexed extensively and centrifuged briefly. Next, 35 μL of lysate is added to 65 μL QuickExtract DNA Extraction Solution (Epicentre) in a PCR plate for each well. PCR plate is incubated at 65° C. for 6 mins, 98° C. for 2 mins and finally cooled to 4° C. HBV DNA is then quantified by qPCR with HBV-specific primers and probes as specified in Table 3 using the Bio-Rad SSOAdvanced Universal Probes Supermix on a CFX96 machine (Bio-Rad). The PCR cycle program consisted of 95° C. for 3 mins, followed by 40 cycles at 95° C. for 10 sec and 60° C. for 30 sec.
A DNA standard is prepared by dilution of an IDT gBlock corresponding to the amplicon with concentrations ranging from 10^2 to 10^8 copies/input (i.e., per 4 μL) and used to generate a standard curve by plotting Cq values vs. HBV DNA standard concentration. The quantity of HBV DNA in each sample is determined by interpolating from the standard curve.
(§4) Cell viability is calculated as follows: % Cell viability=(luminescence value of test sample)/(average luminescence value of 2% DMSO control)×100%. HBV DNA inhibition was calculated as follows: 100−(HBV DNA copy number of test sample)/(average HBV DNA copy number of 2% DMSO control)×100%. No normalization to entecavir is required due to the excellent dynamic window of this assay. The CC50, EC50 and EC9o values were determined by dose-response curves fitted using non-linear regression.

Series [1] can be described thus: Cell viability by CellTiter-Glo 2.0 (intracellular ATP content) in HepG2.117 cells. It is filed as cell-based. As to conditions: human, CellTiter-Glo 2.0, 3 days incubation. As to the method:
as §1, §2, §3
Using the other plates, the cell viability is quantified by CellTiter-Glo 2.0 according to the manufacturer's manual. In brief, 100 μL of reagent solution is added to the culture plates and shaken for 2′. The plates are incubated at rt for 10 min and luminescence signal is subsequently measured on a VarioSkan Lux (ThermoFisher) plate reader.
as §4
(In ATP-based viability assays light output follows the ATP content of the culture.)

Usually pEC50 stands for the negative decadic logarithm of the EC50, by convention in mol/L. In general, CC50 refers to the concentration giving 50% cytotoxicity. The molecule `Cc1cc(C)n(-c2nc3c(c(=O)n2-c2ccc4c(c2)ncn4CC(F)F)C[C@@H](C)N(C(=O)c2ccc(Br)c(C(F)(F)F)c2)C3)n1` [Compound 23, (6R)-7-[4-bromo-3-(trifluoromethyl)benzoyl]-3-[1-(2,2-difluoroethyl)benzimidazol-5-yl]-2-(3,5-dimethylpyrazol-1-yl)-6-methyl-6,8-dihydro-5H-pyrido[3,4-d]pyrimidin-4-one] had a pEC50 in the series with HBV of more than 7.30. In series [1], this molecule gave a CC50 at 3 days of more than 500 nM.
Consider `CNC(=O)c1ccc(-n2c(-n3nc(C)cc3C)nc3c(c2=O)C[C@@H](C)N(C(=O)c2ccc(Br)c(C(F)(F)F)c2)C3)cc1N` [Compound 24, 2-amino-4-[(6R)-7-[4-bromo-3-(trifluoromethyl)benzoyl]-2-(3,5-dimethylpyrazol-1-yl)-6-methyl-4-oxo-6,8-dihydro-5H-pyrido[3,4-d]pyrimidin-3-yl]-N-methyl-benzamide], for which, in the series on HBV, the pEC50 was more than 7.30. Further, the cytotoxic concentration (CC50) at 3 days in series [1] is more than 500 nM.
For the molecule `Cc1cc(C)n(-c2nc3c(c(=O)n2-c2ccc(NC(C)C)nc2)C[C@@H](C)N(C(=O)c2ccc(Br)c(C(F)(F)F)c2)C3)n1` [Compound 25, (6R)-7-[4-bromo-3-(trifluoromethyl)benzoyl]-2-(3,5-dimethylpyrazol-1-yl)-3-[6-(isopropylamino)-3-pyridyl]-6-methyl-6,8-dihydro-5H-pyrido[3,4-d]pyrimidin-4-one], the pEC50 in the series on HBV was more than 7.30. For the same molecule, the CC50 at 3 days in series [1] was more than 500 nM.
Take `Cc1cc(C)n(-c2nc3c(c(=O)n2-c2cc(C)c4c(c2)ncn4C)C[C@@H](C)N(C(=O)c2ccc(Br)c(C(F)(F)F)c2)C3)n1` [Compound 26, (6R)-7-[4-bromo-3-(trifluoromethyl)benzoyl]-3-(1,7-dimethylbenzimidazol-5-yl)-2-(3,5-dimethylpyrazol-1-yl)-6-methyl-6,8-dihydro-5H-pyrido[3,4-d]pyrimidin-4-one]: the pEC50 in the series with HBV is more than 7.30. This molecule also came in with a CC50 at 3 days in series [1] of more than 500 nM.
For `Cc1cc(C)n(-c2nc3c(c(=O)n2-c2ccc(N4CCOCC4)nc2)C[C@@H](C)N(C(=O)c2ccc(Br)c(C(F)(F)F)c2)C3)n1` [Compound 27, (6R)-7-[4-bromo-3-(trifluoromethyl)benzoyl]-2-(3,5-dimethylpyrazol-1-yl)-6-methyl-3-(6-morpholino-3-pyridyl)-6,8-dihydro-5H-pyrido[3,4-d]pyrimidin-4-one], the pEC50 in the series on HBV is more than 7.30. Also, the CC50 at 3 days in series [1] is more than 500 nM.
As for `Cc1cc(C)n(-c2nc3c(c(=O)n2-c2ccc(OC[C@H](C)O)nc2)C[C@@H](C)N(C(=O)c2ccc(Br)c(C(F)(F)F)c2)C3)n1` [Compound 28, (6R)-7-[4-bromo-3-(trifluoromethyl)benzoyl]-2-(3,5-dimethylpyrazol-1-yl)-3-[6-[(2S)-2-hydroxypropoxy]-3-pyridyl]-6-methyl-6,8-dihydro-5H-pyrido[3,4-d]pyrimidin-4-one], in the series with HBV, the pEC50 was more than 7.30. This molecule also registered a CC50 at 3 days in series [1] of more than 500 nM.
On the same counts, the results for `Cc1cc(C)n(-c2nc3c(c(=O)n2-c2ccc(NC[C@H](C)O)nc2)C[C@@H](C)N(C(=O)c2ccc(Br)c(C(F)(F)F)c2)C3)n1` [Compound 29, (6R)-7-[4-bromo-3-(trifluoromethyl)benzoyl]-2-(3,5-dimethylpyrazol-1-yl)-3-[6-[[(2S)-2-hydroxypropyl]amino]-3-pyridyl]-6-methyl-6,8-dihydro-5H-pyrido[3,4-d]pyrimidin-4-one] are more than 7.30 and more than 500 nM.
On the same counts, the results for `Cc1cc(C)n(-c2nc3c(c(=O)n2-c2ccc(NC[C@@H](O)CO)nc2)C[C@@H](C)N(C(=O)c2ccc(Br)c(C(F)(F)F)c2)C3)n1` [Compound 30, (6R)-7-[4-bromo-3-(trifluoromethyl)benzoyl]-3-[6-[[(2R)-2,3-dihydroxypropyl]amino]-3-pyridyl]-2-(3,5-dimethylpyrazol-1-yl)-6-methyl-6,8-dihydro-5H-pyrido[3,4-d]pyrimidin-4-one] are 6.30 to 7.30 and more than 500 nM.
With `Cc1cc(C)n(-c2nc3c(c(=O)n2-c2ccc(NC[C@H](O)CO)nc2)C[C@@H](C)N(C(=O)c2ccc(Br)c(C(F)(F)F)c2)C3)n1` [Compound 31, (6R)-7-[4-bromo-3-(trifluoromethyl)benzoyl]-3-[6-[[(2S)-2,3-dihydroxypropyl]amino]-3-pyridyl]-2-(3,5-dimethylpyrazol-1-yl)-6-methyl-6,8-dihydro-5H-pyrido[3,4-d]pyrimidin-4-one], the pEC50 with HBV is 6.30 to 7.30. Further, in series [1], the CC50 at 3 days is more than 500 nM.
The like results for `Cc1cc(C)n(-c2nc3c(c(=O)n2-c2ccc(N4CC(O)C4)nc2)C[C@@H](C)N(C(=O)c2ccc(Br)c(C(F)(F)F)c2)C3)n1` [Compound 32, (6R)-7-[4-bromo-3-(trifluoromethyl)benzoyl]-2-(3,5-dimethylpyrazol-1-yl)-3-[6-(3-hydroxyazetidin-1-yl)-3-pyridyl]-6-methyl-6,8-dihydro-5H-pyrido[3,4-d]pyrimidin-4-one] were, in that order, more than 7.30 and more than 500 nM.
For the molecule `Cc1cc(C)n(-c2nc3c(c(=O)n2-c2ccc(N4CC[C@H](O)C4)nc2)C[C@@H](C)N(C(=O)c2ccc(Br)c(C(F)(F)F)c2)C3)n1` [Compound 33, (6R)-7-[4-bromo-3-(trifluoromethyl)benzoyl]-2-(3,5-dimethylpyrazol-1-yl)-3-[6-[(3S)-3-hydroxypyrrolidin-1-yl]-3-pyridyl]-6-methyl-6,8-dihydro-5H-pyrido[3,4-d]pyrimidin-4-one], in the series with HBV, the pEC50 was more than 7.30. In series [1], this molecule displayed a CC50 at 3 days of more than 500 nM.
The like results for `Cc1cc(C)n(-c2nc3c(c(=O)n2-c2ccc(N4CCN(C(C)C)CC4)nc2)C[C@@H](C)N(C(=O)c2ccc(Br)c(C(F)(F)F)c2)C3)n1` [Compound 34, (6R)-7-[4-bromo-3-(trifluoromethyl)benzoyl]-2-(3,5-dimethylpyrazol-1-yl)-3-[6-(4-isopropylpiperazin-1-yl)-3-pyridyl]-6-methyl-6,8-dihydro-5H-pyrido[3,4-d]pyrimidin-4-one] were, in that order, more than 7.30 and more than 500 nM.
`Cc1cc(C)n(-c2nc3c(c(=O)n2-c2ccc(N[C@H]4C[C@@H](O)C4)nc2)C[C@@H](C)N(C(=O)c2ccc(Br)c(C(F)(F)F)c2)C3)n1` [Compound 35, (R)-7-(4-bromo-3-(trifluoromethyl)benzoyl]-2-(3,5-dimethyl-1H-pyrazol-1-yl)-3-(6-(((1s,3S)-3-hydroxycyclobutyl)amino)pyridin-3-yl)-6-methyl-5,6,7,8-tetrahydropyrido[3,4-d]pyrimidin-4(3H)-one] showed a pEC50 in the series with HBV of more than 7.30. Moreover, the CC50 at 3 days in series [1] is more than 500 nM.
For the molecule `Cc1cc(C)n(-c2nc3c(c(=O)n2-c2ccc(N[C@H]4C[C@H](O)C4)nc2)C[C@@H](C)N(C(=O)c2ccc(Br)c(C(F)(F)F)c2)C3)n1` [Compound 36, (R)-7-(4-bromo-3-(trifluoromethyl)benzoyl)-2-(3,5-dimethyl-1H-pyrazol-1-yl)-3-(6-(((1r,3R)-3-hydroxycyclobutyl)amino)pyridin-3-yl)-6-methyl-5,6,7,8-tetrahydropyrido[3,4-d]pyrimidin-4(3H)-one], the pEC50 in the series with HBV was more than 7.30. The same molecule registered a CC50 at 3 days in series [1] of more than 500 nM.
The like results for `Cc1cc(C)n(-c2nc3c(c(=O)n2-c2ccc(O[C@H]4C[C@@H](O)C4)cc2)C[C@@H](C)N(C(=O)c2ccc(Br)c(C(F)(F)F)c2)C3)n1` [Compound 37, (R)-7-(4-bromo-3-(trifluoromethyl)benzoyl)-2-(3,5-dimethyl-1H-pyrazol-1-yl)-3-(4-((1s,3S)-3-hydroxycyclobutoxy)phenyl)-6-methyl-5,6,7,8-tetrahydropyrido[3,4-d]pyrimidin-4(3H)-one] were, in that order, more than 7.30 and more than 500 nM.
